# Reference: ChEMBL document CHEMBL3352542, “Synthesis, biological evaluation and molecular modeling study of 2-(1,3,4-thiadiazolyl-thio and 4-methyl-thiazolyl-thio)-quinazolin-4-ones as a new class of DHFR inhibitors” (Bioorg Med Chem Lett, 2014)
# Calls of active or inactive are those of the source. No cut-off for these calls is given here.
# Key:
# TK-10 = test: Growth inhibition of human TK10 cells at 10 uM after 48 hrs; assay type: functional
# NCI-H522 = test: Growth inhibition of human NCI-H522 cells at 10 uM after 48 hrs; assay type: functional
# NCI/ADR-RES = test: Growth inhibition of human NCI-ADR-RES cells at 10 uM after 48 hrs; assay type: functional
# MOLT-4 = test: Growth inhibition of human MOLT4 cells at 10 uM after 48 hrs; assay type: functional
# LOX IMVI = test: Growth inhibition of human LOXIMVI cells at 10 uM after 48 hrs; assay type: functional
# HCT-15 = test: Growth inhibition of human HCT15 cells at 10 uM after 48 hrs; assay type: functional
# SK-MEL-5 = test: Growth inhibition of human SK-MEL-5 cells at 10 uM after 48 hrs; assay type: functional
# HT-29 = test: Growth inhibition of human HT-29 cells at 10 uM after 48 hrs; assay type: functional
# Candida albicans = test: Antimicrobial activity against Candida albicans assessed as inhibition zone at 200 ug/disk after 24 hrs by disc-diffusion method; assay type: functional; conditions: read-out: IZ
# K562 = test: Growth inhibition of human K562 cells at 10 uM after 48 hrs; assay type: functional
# SNB-19 = test: Growth inhibition of human SNB19 cells at 10 uM after 48 hrs; assay type: functional
# A498 = test: Growth inhibition of human A498 cells at 10 uM after 48 hrs; assay type: functional
# ACHN = test: Growth inhibition of human ACHN cells at 10 uM after 48 hrs; assay type: functional
# SNB-75 = test: Growth inhibition of human SNB75 cells at 10 uM after 48 hrs; assay type: functional
# MDA-MB-468 = test: Growth inhibition of human MDA-MB-468 cells at 10 uM after 48 hrs; assay type: functional
# CCRF-CEM = test: Growth inhibition of human CCRF-CEM cells at 10 uM after 48 hrs; assay type: functional
# 786-0 = test: Growth inhibition of human 786-0 cells at 10 uM after 48 hrs; assay type: functional
# Malme-3M = test: Growth inhibition of human MALME-3M cells at 10 uM after 48 hrs; assay type: functional
# HCC 2998 = test: Growth inhibition of human HCC2998 cells at 10 uM after 48 hrs; assay type: functional
# UACC-257 = test: Growth inhibition of human UACC257 cells at 10 uM after 48 hrs; assay type: functional
# SN12C = test: Growth inhibition of human SN12C cells at 10 uM after 48 hrs; assay type: functional
# HOP-92 = test: Growth inhibition of human HOP92 cells at 10 uM after 48 hrs; assay type: functional
# NCI-H460 = test: Growth inhibition of human NCI-H460 cells at 10 uM after 48 hrs; assay type: functional
# COLO 205 = test: Growth inhibition of human COLO205 cells at 10 uM after 48 hrs; assay type: functional
# OVCAR-8 = test: Growth inhibition of human OVCAR8 cells at 10 uM after 48 hrs; assay type: functional
# BT-549 = test: Growth inhibition of human BT549 cells at 10 uM after 48 hrs; assay type: functional
# Pseudomonas aeruginosa = test: Antimicrobial activity against Pseudomonas aeruginosa assessed as inhibition zone at 200 ug/disk after 24 hrs by disc-diffusion method; assay type: functional; conditions: read-out: IZ
# MDA-MB-435 = test: Growth inhibition of human MDA-MB-435 cells at 10 uM after 48 hrs; assay type: functional
# PC-3 = test: Growth inhibition of human PC3 cells at 10 uM after 48 hrs; assay type: functional
# U-251 = test: Growth inhibition of human U251 cells at 10 uM after 48 hrs; assay type: functional
# A549 = test: Growth inhibition of human A549 cells at 10 uM after 48 hrs; assay type: functional
# T47D = test: Growth inhibition of human T47D cells at 10 uM after 48 hrs; assay type: functional
# OVCAR-4 = test: Growth inhibition of human OVCAR4 cells at 10 uM after 48 hrs; assay type: functional
# CAKI-1 = test: Growth inhibition of human CAKI-1 cells at 10 uM after 48 hrs; assay type: functional
# Dihydrofolate reductase = biological target: T1, Dihydrofolate reductase (Bos taurus, UniProt P00376); test: Inhibition of bovine liver DHFR
# T1 sequence (P00376 whole entry): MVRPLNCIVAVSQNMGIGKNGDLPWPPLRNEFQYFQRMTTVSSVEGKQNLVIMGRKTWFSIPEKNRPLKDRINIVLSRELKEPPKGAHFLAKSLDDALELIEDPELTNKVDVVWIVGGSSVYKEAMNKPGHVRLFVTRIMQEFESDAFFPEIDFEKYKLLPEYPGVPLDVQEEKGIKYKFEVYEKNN
# NCI-H23 = test: Growth inhibition of human NCI-H23 cells at 10 uM after 48 hrs; assay type: functional
# Bacillus subtilis = test: Antimicrobial activity against Bacillus subtilis assessed as inhibition zone at 200 ug/disk after 24 hrs by disc-diffusion method; assay type: functional; conditions: read-out: IZ
# M14 = test: Growth inhibition of human M14 cells at 10 uM after 48 hrs; assay type: functional
# MDA-MB-231 = test: Growth inhibition of human MDA-MB-231 cells at 10 uM after 48 hrs; assay type: functional
# HCT-116 = test: Growth inhibition of human HCT116 cells at 10 uM after 48 hrs; assay type: functional
# Staphylococcus aureus = test: Antimicrobial activity against Staphylococcus aureus assessed as inhibition zone at 200 ug/disk after 24 hrs by disc-diffusion method; assay type: functional; conditions: read-out: IZ
# HL-60(TB) = test: Growth inhibition of human HL-60(TB) cells at 10 uM after 48 hrs; assay type: functional
# SF-539 = test: Growth inhibition of human SF539 cells at 10 uM after 48 hrs; assay type: functional
# SF-268 = test: Growth inhibition of human SF268 cells at 10 uM after 48 hrs; assay type: functional
# OVCAR-5 = test: Growth inhibition of human OVCAR5 cells at 10 uM after 48 hrs; assay type: functional
# KM12 = test: Growth inhibition of human KM12 cells at 10 uM after 48 hrs; assay type: functional
# SW-620 = test: Growth inhibition of human SW620 cells at 10 uM after 48 hrs; assay type: functional
# Hs-578T = test: Growth inhibition of human Hs 578T cells at 10 uM after 48 hrs; assay type: functional
# RXF 393 = test: Growth inhibition of human RXF393 cells at 10 uM after 48 hrs; assay type: functional
# SR = test: Growth inhibition of human SR cells at 10 uM after 48 hrs; assay type: functional
# NCI-H226 = test: Growth inhibition of human NCI-H226 cells at 10 uM after 48 hrs; assay type: functional
# SF-295 = test: Growth inhibition of human SF295 cells at 10 uM after 48 hrs; assay type: functional
# UACC-62 = test: Growth inhibition of human UACC62 cells at 10 uM after 48 hrs; assay type: functional
# OVCAR-3 = test: Growth inhibition of human OVCAR3 cells at 10 uM after 48 hrs; assay type: functional
# MCF7 = test: Growth inhibition of human MCF7 cells at 10 uM after 48 hrs; assay type: functional
# UO-31 = test: Growth inhibition of human UO31 cells at 10 uM after 48 hrs; assay type: functional
# Escherichia coli = test: Antimicrobial activity against Escherichia coli assessed as inhibition zone at 200 ug/disk after 24 hrs by disc-diffusion method; assay type: functional; conditions: read-out: IZ
# RPMI-8226 = test: Growth inhibition of human RPMI8226 cells at 10 uM after 48 hrs; assay type: functional
smiles,measurement,setting,value
COc1cc2nc(Sc3sc(N)nc3C)n(-c3ccc(C)cc3)c(=O)c2cc1OC,growth inhibition (GI),TK-10,inactive
same,growth inhibition (GI),NCI-H522,inactive
same,growth inhibition (GI),NCI/ADR-RES,inactive
same,growth inhibition (GI),MOLT-4,inactive
same,growth inhibition (GI),LOX IMVI,inactive
same,growth inhibition (GI),HCT-15,inactive
same,growth inhibition (GI),SK-MEL-5,inactive
same,growth inhibition (GI),HT-29,inactive
same,zone of inhibition at 200 µg/disc,Candida albicans,8 mm
same,growth inhibition (GI),K562,inactive
same,growth inhibition (GI),SNB-19,inactive
same,growth inhibition (GI),A498,inactive
same,growth inhibition (GI),ACHN,inactive
same,growth inhibition (GI),SNB-75,inactive
same,growth inhibition (GI),MDA-MB-468,inactive
same,growth inhibition (GI),CCRF-CEM,inactive
same,growth inhibition (GI),786-0,inactive
same,growth inhibition (GI),Malme-3M,inactive
same,growth inhibition (GI),HCC 2998,inactive
same,growth inhibition (GI),UACC-257,inactive
same,growth inhibition (GI),SN12C,inactive
same,growth inhibition (GI),HOP-92,inactive
same,growth inhibition (GI),NCI-H460,inactive
same,growth inhibition (GI),COLO 205,inactive
same,growth inhibition (GI),OVCAR-8,inactive
same,growth inhibition (GI),BT-549,inactive
same,zone of inhibition at 200 µg/disc,Pseudomonas aeruginosa,8 mm
same,growth inhibition (GI),MDA-MB-435,inactive
same,growth inhibition (GI),PC-3,inactive
same,growth inhibition (GI),U-251,inactive
same,growth inhibition (GI),A549,inactive
same,growth inhibition (GI),T47D,inactive
same,growth inhibition (GI),OVCAR-4,inactive
same,growth inhibition (GI),CAKI-1,inactive
same,IC50,Dihydrofolate reductase,8 µM
same,growth inhibition (GI),NCI-H23,inactive
same,zone of inhibition at 200 µg/disc,Bacillus subtilis,8 mm
same,growth inhibition (GI),M14,inactive
same,growth inhibition (GI),MDA-MB-231,inactive
same,growth inhibition (GI),HCT-116,inactive
same,zone of inhibition at 200 µg/disc,Staphylococcus aureus,8 mm
same,growth inhibition (GI),HL-60(TB),inactive
same,growth inhibition (GI),SF-539,inactive
same,growth inhibition (GI),SF-268,inactive
same,growth inhibition (GI),OVCAR-5,inactive
same,growth inhibition (GI),KM12,inactive
same,growth inhibition (GI),SW-620,inactive
same,growth inhibition (GI),Hs-578T,inactive
same,growth inhibition (GI),RXF 393,inactive
same,growth inhibition (GI),SR,inactive
same,growth inhibition (GI),NCI-H226,inactive
same,growth inhibition (GI),SF-295,inactive
same,growth inhibition (GI),UACC-62,inactive
same,growth inhibition (GI),OVCAR-3,inactive
same,growth inhibition (GI),MCF7,inactive
same,growth inhibition (GI),UO-31,inactive
same,zone of inhibition at 200 µg/disc,Escherichia coli,8 mm
same,growth inhibition (GI),RPMI-8226,inactive
Cc1ccc2nc(Sc3nnc(N)s3)n(Cc3ccccc3)c(=O)c2c1,growth inhibition (GI),TK-10,inactive
same,growth inhibition (GI),NCI-H522,inactive
same,growth inhibition (GI),NCI/ADR-RES,inactive
same,growth inhibition (GI),MOLT-4,inactive
same,growth inhibition (GI),LOX IMVI,inactive
same,growth inhibition (GI),HCT-15,inactive
same,growth inhibition (GI),SK-MEL-5,inactive
same,growth inhibition (GI),HT-29,inactive
same,zone of inhibition at 200 µg/disc,Candida albicans,8 mm
same,growth inhibition (GI),K562,inactive
same,growth inhibition (GI),SNB-19,inactive
same,growth inhibition (GI),A498,inactive
same,growth inhibition (GI),ACHN,inactive
same,growth inhibition (GI),SNB-75,inactive
same,growth inhibition (GI),MDA-MB-468,inactive
same,growth inhibition (GI),CCRF-CEM,inactive
same,growth inhibition (GI),786-0,inactive
same,growth inhibition (GI),Malme-3M,inactive
same,growth inhibition (GI),HCC 2998,inactive
same,growth inhibition (GI),UACC-257,inactive
same,growth inhibition (GI),SN12C,inactive
same,growth inhibition (GI),HOP-92,inactive
same,growth inhibition (GI),NCI-H460,inactive
same,growth inhibition (GI),COLO 205,inactive
same,growth inhibition (GI),OVCAR-8,inactive
same,growth inhibition (GI),BT-549,inactive
same,zone of inhibition at 200 µg/disc,Pseudomonas aeruginosa,8 mm
same,growth inhibition (GI),MDA-MB-435,inactive
same,growth inhibition (GI),PC-3,inactive
same,growth inhibition (GI),U-251,inactive
same,growth inhibition (GI),A549,inactive
same,growth inhibition (GI),T47D,inactive
same,growth inhibition (GI),OVCAR-4,inactive
same,growth inhibition (GI),CAKI-1,inactive
same,IC50,Dihydrofolate reductase,2 µM
same,growth inhibition (GI),NCI-H23,inactive
same,zone of inhibition at 200 µg/disc,Bacillus subtilis,8 mm
same,growth inhibition (GI),M14,inactive
same,growth inhibition (GI),MDA-MB-231,inactive
same,growth inhibition (GI),HCT-116,inactive
same,zone of inhibition at 200 µg/disc,Staphylococcus aureus,8 mm
same,growth inhibition (GI),HL-60(TB),inactive
same,growth inhibition (GI),SF-539,inactive
same,growth inhibition (GI),SF-268,inactive
same,growth inhibition (GI),OVCAR-5,inactive
same,growth inhibition (GI),KM12,inactive
same,growth inhibition (GI),SW-620,inactive
same,growth inhibition (GI),Hs-578T,inactive
same,growth inhibition (GI),RXF 393,inactive
same,growth inhibition (GI),SR,inactive
same,growth inhibition (GI),NCI-H226,inactive
same,growth inhibition (GI),SF-295,inactive
same,growth inhibition (GI),UACC-62,inactive
same,growth inhibition (GI),OVCAR-3,inactive
same,growth inhibition (GI),MCF7,inactive
same,growth inhibition (GI),UO-31,inactive
same,zone of inhibition at 200 µg/disc,Escherichia coli,8 mm
same,growth inhibition (GI),RPMI-8226,inactive
